Assay results from the NIST ThermoML archive (doi:10.1021/je700260f).

Conditions: Liquid, Vibrating tube method

FC(C(F)(F)F)C(F)(F)F [1,1,1,2,3,3,3-heptafluoropropane]
Conditions	mass density [kg/m3]
333.13 K, 4181 kPa	1264.9
333.13 K, 4207 kPa	1265.2
333.13 K, 4241 kPa	1265.8
333.13 K, 4278 kPa	1266.2
333.13 K, 4309 kPa	1266.6
333.13 K, 4338 kPa	1266.8
333.13 K, 4364 kPa	1267.4
333.13 K, 4398 kPa	1267.7
333.13 K, 4432 kPa	1268.2
333.13 K, 4463 kPa	1268.6
333.13 K, 4762 kPa	1272.2
333.13 K, 4802 kPa	1272.8
333.13 K, 4834 kPa	1273.3
333.13 K, 4861 kPa	1273.7
333.13 K, 4893 kPa	1274.1
333.13 K, 4916 kPa	1274.2
333.13 K, 4947 kPa	1274.6
333.13 K, 4988 kPa	1275.2
333.13 K, 5015 kPa	1275.4
333.13 K, 5055 kPa	1275.9
333.13 K, 5086 kPa	1276.3
333.13 K, 5123 kPa	1276.9
333.13 K, 5155 kPa	1277.2
333.13 K, 5191 kPa	1277.7
333.13 K, 5224 kPa	1277.9
333.13 K, 5261 kPa	1278.4
333.13 K, 5294 kPa	1278.8
333.13 K, 5325 kPa	1279.1
333.13 K, 5365 kPa	1279.6
333.13 K, 5432 kPa	1280.3
333.13 K, 5541 kPa	1281.7
333.13 K, 5612 kPa	1282.4
333.13 K, 5635 kPa	1282.8
333.13 K, 5673 kPa	1283.2
333.13 K, 25651 kPa	1419.9
333.13 K, 25679 kPa	1419.9
333.13 K, 25788 kPa	1420.5
333.13 K, 27375 kPa	1427.5
333.13 K, 27408 kPa	1427.7
333.13 K, 27436 kPa	1427.8
333.13 K, 33941 kPa	1454.3
333.13 K, 33977 kPa	1454.4
333.13 K, 34019 kPa	1454.5
333.13 K, 34054 kPa	1454.8
333.13 K, 34100 kPa	1454.9
333.13 K, 34136 kPa	1455
333.14 K, 1234 kPa	1218
333.14 K, 1254 kPa	1218.5
333.14 K, 1281 kPa	1218.9
333.14 K, 1309 kPa	1219.4
333.14 K, 1332 kPa	1220.1
333.14 K, 1355 kPa	1220.5
333.14 K, 1386 kPa	1221.1
333.14 K, 1403 kPa	1221.3
333.14 K, 1427 kPa	1221.8
333.14 K, 1448 kPa	1222.1
333.14 K, 1472 kPa	1222.6
333.14 K, 1496 kPa	1223.2
333.14 K, 1520 kPa	1223.5
333.14 K, 1540 kPa	1223.9
333.14 K, 1568 kPa	1224.4
333.14 K, 1593 kPa	1224.9
333.14 K, 1614 kPa	1225.4
333.14 K, 2164 kPa	1235.1
333.14 K, 2189 kPa	1235.5
333.14 K, 2224 kPa	1236.1
333.14 K, 2254 kPa	1236.5
333.14 K, 2277 kPa	1237
333.14 K, 2308 kPa	1237.5
333.14 K, 2330 kPa	1237.9
333.14 K, 2385 kPa	1238.7
333.14 K, 2413 kPa	1239.2
333.14 K, 2434 kPa	1239.4
333.14 K, 2460 kPa	1240
333.14 K, 2489 kPa	1240.4
333.14 K, 2516 kPa	1240.8
333.14 K, 2546 kPa	1241.2
333.14 K, 2576 kPa	1241.8
333.14 K, 2634 kPa	1242.8
333.14 K, 2657 kPa	1243.2
333.14 K, 2684 kPa	1243.6
333.14 K, 2716 kPa	1244.1
333.14 K, 2981 kPa	1248.1
333.14 K, 3011 kPa	1248.6
333.14 K, 3038 kPa	1249
333.14 K, 3071 kPa	1249.5
333.14 K, 3107 kPa	1249.9
333.14 K, 3140 kPa	1250.4
333.14 K, 3169 kPa	1251
333.14 K, 3205 kPa	1251.4
333.14 K, 4501 kPa	1269.1
333.14 K, 4531 kPa	1269.4
333.14 K, 4566 kPa	1269.9
333.14 K, 4601 kPa	1270.4
333.14 K, 4623 kPa	1270.6
333.14 K, 4661 kPa	1271
333.14 K, 4697 kPa	1271.7
333.14 K, 4727 kPa	1272
333.14 K, 5403 kPa	1280.1
333.14 K, 5469 kPa	1280.8
333.14 K, 5503 kPa	1281.2
333.14 K, 5584 kPa	1282.2
333.14 K, 5709 kPa	1283.6
333.14 K, 5750 kPa	1283.9
333.14 K, 5782 kPa	1284.4
333.14 K, 5815 kPa	1284.8
333.14 K, 5845 kPa	1285.1
333.14 K, 5879 kPa	1285.5
333.14 K, 5908 kPa	1285.8
333.14 K, 5941 kPa	1286.1
333.14 K, 5970 kPa	1286.4
333.14 K, 6009 kPa	1287
333.14 K, 6052 kPa	1287.3
333.14 K, 6090 kPa	1287.8
333.14 K, 6133 kPa	1288.1
333.14 K, 6158 kPa	1288.5
333.14 K, 6191 kPa	1289
333.14 K, 6216 kPa	1289.2
333.14 K, 6250 kPa	1289.5
333.14 K, 6472 kPa	1291.9
333.14 K, 6498 kPa	1292.3
333.14 K, 6533 kPa	1292.6
333.14 K, 6555 kPa	1292.7
333.14 K, 6594 kPa	1293.3
333.14 K, 6633 kPa	1293.6
333.14 K, 6668 kPa	1293.9
333.14 K, 6702 kPa	1294.2
333.14 K, 6728 kPa	1294.7
333.14 K, 6758 kPa	1295
333.14 K, 6922 kPa	1296.7
333.14 K, 7050 kPa	1297.8
333.14 K, 7081 kPa	1298.2
333.14 K, 7125 kPa	1298.6
333.14 K, 7151 kPa	1299
333.14 K, 7182 kPa	1299.2
333.14 K, 7209 kPa	1299.5
333.14 K, 7243 kPa	1299.9
333.14 K, 7278 kPa	1300.2
333.14 K, 7311 kPa	1300.4
333.14 K, 7341 kPa	1300.7
333.14 K, 7368 kPa	1301.1
333.14 K, 7402 kPa	1301.4
333.14 K, 7424 kPa	1301.7
333.14 K, 7460 kPa	1302.1
333.14 K, 7496 kPa	1302.4
333.14 K, 7527 kPa	1302.6
333.14 K, 7559 kPa	1303
333.14 K, 7590 kPa	1303.3
333.14 K, 7632 kPa	1303.7
333.14 K, 7670 kPa	1304.1
333.14 K, 7702 kPa	1304.3
333.14 K, 7735 kPa	1304.7
333.14 K, 7767 kPa	1305.1
333.14 K, 7795 kPa	1305.2
333.14 K, 7826 kPa	1305.5
333.14 K, 7864 kPa	1305.9
333.14 K, 7893 kPa	1306.1
333.14 K, 7930 kPa	1306.5
333.14 K, 7957 kPa	1306.8
333.14 K, 7996 kPa	1307.2
333.14 K, 8029 kPa	1307.4
333.14 K, 8057 kPa	1307.7
333.14 K, 8080 kPa	1307.9
333.14 K, 25452 kPa	1419
333.14 K, 25486 kPa	1419
333.14 K, 25524 kPa	1419.3
333.14 K, 25553 kPa	1419.5
333.14 K, 25586 kPa	1419.6
333.14 K, 25615 kPa	1419.7
333.14 K, 25704 kPa	1419.9
333.14 K, 25735 kPa	1420.1
333.14 K, 25762 kPa	1420.4
333.14 K, 25814 kPa	1420.7
333.14 K, 25854 kPa	1420.9
333.14 K, 25874 kPa	1420.9
333.14 K, 25917 kPa	1421.1
333.14 K, 25950 kPa	1421.3
333.14 K, 25976 kPa	1421.4
333.14 K, 26005 kPa	1421.5
333.14 K, 26036 kPa	1421.6
333.14 K, 26069 kPa	1421.8
333.14 K, 26295 kPa	1422.8
333.14 K, 26327 kPa	1422.9
333.14 K, 26353 kPa	1423.1
333.14 K, 26386 kPa	1423.1
333.14 K, 26411 kPa	1423.3
333.14 K, 26444 kPa	1423.3
333.14 K, 26469 kPa	1423.6
333.14 K, 26504 kPa	1423.7
333.14 K, 27209 kPa	1426.8
333.14 K, 27239 kPa	1427
333.14 K, 27284 kPa	1427.1
333.14 K, 27317 kPa	1427.3
333.14 K, 27346 kPa	1427.5
333.14 K, 27465 kPa	1428
333.14 K, 27494 kPa	1428
333.14 K, 27531 kPa	1428.3
333.14 K, 27561 kPa	1428.5
333.14 K, 27595 kPa	1428.4
333.14 K, 28013 kPa	1430.3
333.14 K, 28047 kPa	1430.5
333.14 K, 28080 kPa	1430.6
333.14 K, 28109 kPa	1430.9
333.14 K, 28138 kPa	1430.9
333.14 K, 28167 kPa	1431
333.14 K, 28201 kPa	1431.2
